How the values were obtained:
A549/ATCC = assay: NCI 60 Cell One-Dose Screen; format: cell-based, human; details: Non-Small Cell Lung Cancer, single dose 10^-5 M
SW-620 = assay: NCI 60 Cell One-Dose Screen; format: cell-based, human; details: SW-620, Colon Cancer; single dose 10^-5 M
BT-549 = assay: NCI 60 Cell One-Dose Screen; format: cell-based, human; details: BT-549, Breast Cancer; single dose 10^-5 M
SK-MEL-28 = format: cell-based; details: SK-MEL-28, Melanoma
SF-268 = format: cell-based; details: SF-268, CNS Cancer
A498 = format: cell-based; details: A498, Renal Cancer
KM12 [1] = assay: NCI 60 Cell One-Dose Screen; format: cell-based, human; details: KM12, Colon Cancer; single dose 10^-5 M
HT29 [2] = assay: NCI 60 Cell One-Dose Screen; format: cell-based, human; details: HT29, Colon Cancer; single dose 10^-5 M
OVCAR-5 = assay: NCI 60 Cell One-Dose Screen; format: cell-based, human; details: OVCAR-5, Ovarian Cancer; single dose 10^-5 M
SF-295 = format: cell-based; details: SF-295, CNS Cancer
TK-10 = format: cell-based
MDA-MB-435 = format: cell-based; details: MDA-MB-435, Melanoma
K-562 = format: cell-based; details: K-562, Leukemia
T-47D = format: cell-based; details: Breast Cancer
KM12 [3] = format: cell-based; details: KM12, Colon Cancer
ACHN = format: cell-based; details: Renal Cancer
SNB-75 = format: cell-based; details: SNB-75, CNS Cancer
OVCAR-3 [4] = system: OVCAR-3
RXF 393 = format: cell-based; details: RXF 393, Renal Cancer
HOP-62 = format: cell-based; details: HOP-62, Non-Small Cell Lung Cancer
SN12C = assay: NCI 60 Cell One-Dose Screen; format: cell-based, human; details: Renal Cancer, single dose 10^-5 M
UACC-62 [5] = assay: NCI 60 Cell One-Dose Screen; format: cell-based, human; details: UACC-62, Melanoma; single dose 10^-5 M
UACC-62 [6] = format: cell-based; details: UACC-62, Melanoma
SK-MEL-2 = format: cell-based; details: SK-MEL-2, Melanoma
CAKI-1 = assay: NCI 60 Cell One-Dose Screen; format: cell-based, human; details: CAKI-1, Renal Cancer; single dose 10^-5 M
HCT-15 = assay: NCI 60 Cell One-Dose Screen; format: cell-based, human; details: HCT-15, Colon Cancer; single dose 10^-5 M
NCI-H460 = format: cell-based; details: NCI-H460, Non-Small Cell Lung Cancer
OVCAR-3 [7] = assay: NCI 60 Cell One-Dose Screen; format: cell-based, human; details: OVCAR-3, Ovarian Cancer; single dose 10^-5 M
HT29 [8] = format: cell-based; details: HT29, Colon Cancer
OVCAR-8 = format: cell-based; details: OVCAR-8, Ovarian Cancer
HS 578T = format: cell-based; details: Breast Cancer
CCRF-CEM = assay: NCI 60 Cell One-Dose Screen; format: cell-based, human; details: Leukemia, single dose 10^-5 M
EKVX = assay: NCI 60 Cell One-Dose Screen; format: cell-based, human; details: Non-Small Cell Lung Cancer, single dose 10^-5 M
[9] = Homo sapiens, read-out: LC50 (the source's name)

**Q.** Which results are given for `NCC(=O)NS(=O)(=O)OC[C@H]1O[C@@H](n2cnc3c(N)ncnc32)[C@H](O)[C@@H]1O` [GlySA, glycylsulfamoyladenosine]?
**A.** Growth inhibition count (%) (A549/ATCC): 9.701%; Growth inhibition count (%) (SW-620): 3.712%; Growth inhibition count (%) (BT-549): 21.06%; GI50 (SK-MEL-28; Homo sapiens): 1950 nM; CC50 (SK-MEL-28; [9]): 8.91 µM; LC50/GI50 (SK-MEL-28): 4.6; GI50 (SF-268; Homo sapiens): 501 nM; LC50/GI50 (SF-268): >199.5; LC50/GI50 (A498): 4.1; GI50 (A498; Homo sapiens): 1580 nM; CC50 (A498; [9]): 6.46 µM; Growth inhibition count (%) (KM12 [1]): 0.7347%; Growth inhibition count (%) (HT29 [2]): 6.002%; Growth inhibition count (%) (OVCAR-5): 0.2916%; GI50 (SF-295; Homo sapiens): 871 nM; CC50 (SF-295; [9]): 6.92 µM; LC50/GI50 (SF-295): 7.9; GI50 (TK-10; Homo sapiens, TK-10): 2750 nM; CC50 (TK-10; Homo sapiens, TK-10, Renal Cancer, read-out: LC50 (the source's name)): 23.4 µM; LC50/GI50 (TK-10; TK-10, Renal Cancer): 8.5; GI50 (MDA-MB-435; Homo sapiens): 1820 nM; LC50/GI50 (MDA-MB-435): 3.6; GI50 (K-562; Homo sapiens, K562): 3.71 µM; LC50/GI50 (K-562): >26.9; LC50/GI50 (T-47D): >42.7; GI50 (T-47D; Homo sapiens, T47D): 2340 nM; CC50 (T-47D; Homo sapiens, T47D, read-out: LC50 (the source's name)): > 100 µM; GI50 (KM12 [3]; Homo sapiens): 3.24 µM; LC50/GI50 (KM12 [3]): >30.9; GI50 (ACHN; Homo sapiens): 2880 nM; CC50 (ACHN; [9]): 33.9 µM; LC50/GI50 (ACHN): 11.7; GI50 (SNB-75; Homo sapiens): 1150 nM; CC50 (SNB-75; [9]): 9.55 µM; LC50/GI50 (SNB-75): 8.3; GI50 (OVCAR-3 [4]; Homo sapiens, OVCAR-3): 2000 nM; CC50 (OVCAR-3 [4]; Homo sapiens, OVCAR-3, read-out: LC50 (μM)): 10 µM; LC50/GI50 (OVCAR-3 [4]; OVCAR-3, Ovarian Cancer): 5.0; GI50 (RXF 393; Homo sapiens): 2140 nM; CC50 (RXF 393; [9]): 8.32 µM; LC50/GI50 (RXF 393): 3.9; LC50/GI50 (HOP-62): >269.2; GI50 (HOP-62; Homo sapiens): 372 nM; CC50 (HOP-62; [9]): > 100 µM; Growth inhibition count (%) (SN12C): 1.03%; Growth inhibition count (%) (UACC-62 [5]): 30.71%; GI50 (UACC-62 [6]; Homo sapiens): 1860 nM; LC50/GI50 (UACC-62 [6]): 4.2; GI50 (SK-MEL-2; Homo sapiens): 2240 nM; CC50 (SK-MEL-2; [9]): 10 µM; LC50/GI50 (SK-MEL-2): 4.5; Growth inhibition count (%) (CAKI-1): 5.11%; Growth inhibition count (%) (HCT-15): 11.42%; GI50 (NCI-H460; Homo sapiens): 3.24 µM; CC50 (NCI-H460; [9]): > 100 µM; LC50/GI50 (NCI-H460): >30.9; Growth inhibition count (%) (OVCAR-3 [7]): 10.05%; LC50/GI50 (HT29 [8]): >33.9; GI50 (HT29 [8]; Homo sapiens, HT-29): 2950 nM; CC50 (HT29 [8]; Homo sapiens, HT-29, read-out: LC50 (the source's name)): > 100 µM; GI50 (OVCAR-8; Homo sapiens): 2460 nM; CC50 (OVCAR-8; [9]): > 100 µM; LC50/GI50 (OVCAR-8): >40.7; LC50/GI50 (HS 578T): >34.7; GI50 (HS 578T; Homo sapiens): 2880 nM; CC50 (HS 578T; [9]): > 100 µM; Growth inhibition count (%) (CCRF-CEM): 21.68%; Growth inhibition count (%) (EKVX): 44.07%

Source: patent publication US20190381086A1, “INHIBITION OF NEDDYLATION USING GLYCYL-tRNA SYNTHETASE INHIBITORS” (The Scripps Research Institute, priority 2015, published 2019)
